Reference: ChEMBL document CHEMBL1909046, “DrugMatrix in vitro pharmacology data”

Key:
[1] = target: T1, Alpha-1D adrenergic receptor (Homo sapiens, UniProt P25100); assay type: cell membranes, HEK293, Membrane; conditions: for Ki: read-out: Ki; as to all read-outs here: in other assays of this panel Not Active means under 50% inhibition at 10 µM
T1 sequence (P25100 whole entry): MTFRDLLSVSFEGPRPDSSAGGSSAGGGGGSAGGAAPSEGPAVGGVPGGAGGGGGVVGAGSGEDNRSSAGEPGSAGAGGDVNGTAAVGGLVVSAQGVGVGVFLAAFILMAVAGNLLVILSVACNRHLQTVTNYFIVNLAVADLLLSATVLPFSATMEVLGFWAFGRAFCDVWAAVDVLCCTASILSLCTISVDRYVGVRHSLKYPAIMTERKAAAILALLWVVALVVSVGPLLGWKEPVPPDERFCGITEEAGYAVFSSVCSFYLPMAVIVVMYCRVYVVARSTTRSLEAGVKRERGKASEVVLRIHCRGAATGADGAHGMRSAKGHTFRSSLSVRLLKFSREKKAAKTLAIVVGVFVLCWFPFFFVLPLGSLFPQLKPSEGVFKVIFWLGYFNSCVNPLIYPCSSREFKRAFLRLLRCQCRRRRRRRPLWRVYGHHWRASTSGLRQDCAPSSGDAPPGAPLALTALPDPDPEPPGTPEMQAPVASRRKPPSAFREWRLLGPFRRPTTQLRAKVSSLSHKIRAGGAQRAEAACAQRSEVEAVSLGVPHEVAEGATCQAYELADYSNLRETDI

Substance-P receptor = Substance-P receptor (Homo sapiens, UniProt P25103); assay type: cell membranes, CHO, Membrane; also: in other assays of this panel Not Active means under 50% inhibition at 10 µM
Substance-P receptor, sequence (P25103 whole entry): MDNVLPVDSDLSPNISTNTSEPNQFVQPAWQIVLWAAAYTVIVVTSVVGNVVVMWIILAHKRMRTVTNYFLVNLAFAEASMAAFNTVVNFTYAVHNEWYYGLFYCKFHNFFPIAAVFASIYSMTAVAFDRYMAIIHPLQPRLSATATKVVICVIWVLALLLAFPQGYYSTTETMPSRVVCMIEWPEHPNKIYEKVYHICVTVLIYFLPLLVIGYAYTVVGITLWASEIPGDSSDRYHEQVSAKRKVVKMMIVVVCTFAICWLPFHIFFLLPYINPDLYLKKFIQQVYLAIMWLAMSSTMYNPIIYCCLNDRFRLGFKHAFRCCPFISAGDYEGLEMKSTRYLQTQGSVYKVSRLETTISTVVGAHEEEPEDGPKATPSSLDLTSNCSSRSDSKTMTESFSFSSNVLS

[2] = target: T2, Nitric oxide synthase, inducible (Mus musculus, UniProt P29477); set-up: species or system Escherichia coli;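 also: inhibition of iNOS enzyme activity measured with L-arginine as substrate; in other assays of this panel Not Active means under 50% inhibition at 10 µM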
T2 sequence (P29477 whole entry): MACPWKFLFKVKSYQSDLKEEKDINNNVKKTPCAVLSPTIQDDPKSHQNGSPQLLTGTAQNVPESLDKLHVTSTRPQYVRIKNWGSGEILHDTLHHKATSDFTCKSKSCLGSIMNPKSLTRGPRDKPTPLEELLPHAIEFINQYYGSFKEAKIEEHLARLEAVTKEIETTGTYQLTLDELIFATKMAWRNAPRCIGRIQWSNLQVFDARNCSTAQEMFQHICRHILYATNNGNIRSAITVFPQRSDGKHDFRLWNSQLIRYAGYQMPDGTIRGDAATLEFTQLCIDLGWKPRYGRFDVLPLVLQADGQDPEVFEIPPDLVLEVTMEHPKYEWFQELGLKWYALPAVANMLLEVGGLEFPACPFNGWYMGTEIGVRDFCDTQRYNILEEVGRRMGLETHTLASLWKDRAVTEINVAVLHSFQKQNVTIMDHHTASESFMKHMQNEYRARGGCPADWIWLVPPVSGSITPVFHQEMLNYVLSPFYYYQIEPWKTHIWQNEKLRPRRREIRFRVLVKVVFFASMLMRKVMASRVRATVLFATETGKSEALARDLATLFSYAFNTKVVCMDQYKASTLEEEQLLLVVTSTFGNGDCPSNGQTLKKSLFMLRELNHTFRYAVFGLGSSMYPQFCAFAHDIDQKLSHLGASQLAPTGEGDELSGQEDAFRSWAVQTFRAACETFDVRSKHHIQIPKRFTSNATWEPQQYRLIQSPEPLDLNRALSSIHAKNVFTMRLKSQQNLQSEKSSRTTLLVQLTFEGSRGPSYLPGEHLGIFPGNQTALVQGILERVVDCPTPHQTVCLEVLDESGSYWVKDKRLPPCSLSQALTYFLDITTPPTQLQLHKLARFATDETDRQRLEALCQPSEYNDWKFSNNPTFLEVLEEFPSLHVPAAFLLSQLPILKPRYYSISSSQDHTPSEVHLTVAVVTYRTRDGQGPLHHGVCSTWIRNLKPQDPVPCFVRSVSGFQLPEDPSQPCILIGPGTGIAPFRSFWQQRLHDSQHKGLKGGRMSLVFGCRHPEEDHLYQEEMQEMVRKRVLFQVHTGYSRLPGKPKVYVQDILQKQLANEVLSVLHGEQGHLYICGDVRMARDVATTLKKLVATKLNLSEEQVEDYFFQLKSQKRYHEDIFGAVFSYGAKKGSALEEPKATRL

Progesterone receptor = target: T3, Progesterone receptor (Bos taurus, UniProt Q690N0); assay: DRUGMATRIX: Progesterone radioligand binding (ligand: [3H] R-5020); assay type: tissue-based, Uterus; conditions: Not Active = under 50% inhibition at 10 µM; for Ki: read-out: Ki
T3 sequence (Q690N0 whole entry): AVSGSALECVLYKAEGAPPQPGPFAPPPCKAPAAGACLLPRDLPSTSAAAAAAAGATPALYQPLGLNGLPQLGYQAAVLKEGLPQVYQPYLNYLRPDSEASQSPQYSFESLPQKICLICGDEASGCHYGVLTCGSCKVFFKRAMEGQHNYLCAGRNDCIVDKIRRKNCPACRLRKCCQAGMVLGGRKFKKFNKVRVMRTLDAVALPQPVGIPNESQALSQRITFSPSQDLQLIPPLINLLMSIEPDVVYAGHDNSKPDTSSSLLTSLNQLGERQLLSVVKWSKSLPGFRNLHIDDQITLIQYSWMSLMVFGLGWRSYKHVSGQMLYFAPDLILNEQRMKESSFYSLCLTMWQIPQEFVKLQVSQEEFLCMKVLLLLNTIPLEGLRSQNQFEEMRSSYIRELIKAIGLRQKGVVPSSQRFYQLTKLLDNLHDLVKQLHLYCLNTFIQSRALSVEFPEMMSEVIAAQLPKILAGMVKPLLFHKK

Acetylcholinesterase = Acetylcholinesterase (Homo sapiens, UniProt P22303); assay: DRUGMATRIX: Acetylcholinesterase enzyme inhibition (substrate: acetylthiocholine); assay type: cell-based, HEK293; conditions: Not Active = under 50% inhibition at 10 µM
Acetylcholinesterase, sequence (P22303 whole entry): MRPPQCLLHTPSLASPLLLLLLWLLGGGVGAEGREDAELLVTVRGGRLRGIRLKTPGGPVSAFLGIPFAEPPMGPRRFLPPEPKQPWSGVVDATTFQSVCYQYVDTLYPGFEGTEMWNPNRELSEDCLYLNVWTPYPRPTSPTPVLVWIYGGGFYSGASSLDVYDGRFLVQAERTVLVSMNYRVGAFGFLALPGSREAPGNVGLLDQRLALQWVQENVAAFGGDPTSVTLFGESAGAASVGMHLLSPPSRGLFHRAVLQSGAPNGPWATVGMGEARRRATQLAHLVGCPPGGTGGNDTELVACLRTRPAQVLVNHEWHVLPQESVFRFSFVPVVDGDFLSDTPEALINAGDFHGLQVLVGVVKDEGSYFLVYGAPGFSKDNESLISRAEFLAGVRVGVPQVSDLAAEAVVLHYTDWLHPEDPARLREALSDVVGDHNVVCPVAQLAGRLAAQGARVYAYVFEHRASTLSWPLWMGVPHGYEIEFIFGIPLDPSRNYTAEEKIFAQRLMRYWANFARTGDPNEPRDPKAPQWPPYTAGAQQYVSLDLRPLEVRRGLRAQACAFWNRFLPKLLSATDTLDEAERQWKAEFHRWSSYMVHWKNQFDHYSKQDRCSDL

| SMILES | IC50 ([1]; hek293) | IC50 (Substance-P receptor; cho) | IC50 [2] | IC50 (Progesterone receptor) | IC50 (Acetylcholinesterase; hek293) | IC50 (Progesterone receptor; read-out: IC50) [µM] | Ki (Progesterone receptor) [µM] | IC50 ([1]; read-out: IC50) [µM] | Ki [1] [µM] | IC50 (Substance-P receptor; read-out: IC50) [µM] | Ki (Substance-P receptor; read-out: Ki) [µM] | IC50 (Acetylcholinesterase; read-out: IC50) [µM] |
| --- | --- | --- | --- | --- | --- | --- | --- | --- | --- | --- | --- | --- |
| CC(C)(C)NC(=O)[C@@H]1C[C@@H]2CCCC[C@@H]2CN1C[C@@H](O)[C@H](Cc1ccccc1)NC(=O)[C@H](CC(N)=O)NC(=O)c1ccc2ccccc2n1 | Not Active | Not Active | Not Active | Not Active | Not Active | – | – | – | – | – | – | – |
| CC(=O)[C@@]1(O)CC[C@H]2[C@@H]3C[C@H](C)C4=CC(=O)CC[C@]4(C)[C@H]3CC[C@@]21C | Not Active | Not Active | Not Active | – | Not Active | 0.711 | 0.093 | – | – | – | – | – |
| N[C@@H](Cc1ccc(N(CCCl)CCCl)cc1)C(=O)O | Not Active | Not Active | Not Active | Not Active | Not Active | – | – | – | – | – | – | – |
| CCCCc1oc2ccccc2c1C(=O)c1cc(I)c(OCCN(CC)CC)c(I)c1 [AMIODARONE] | Not Active | Not Active | Not Active | Not Active | Not Active | – | – | – | – | – | – | – |
| OCCN(CCO)c1nc(N2CCCCC2)c2nc(N(CCO)CCO)nc(N3CCCCC3)c2n1 [DIPYRIDAMOLE] | Not Active | Not Active | Not Active | Not Active | Not Active | – | – | – | – | – | – | – |
| Cc1oncc1C(=O)Nc1ccc(C(F)(F)F)cc1 [LEFLUNOMIDE] | Not Active | Not Active | Not Active | Not Active | Not Active | – | – | – | – | – | – | – |
| c1ccc([C@H]2CN3CCSC3=N2)cc1 [LEVAMISOLE] | Not Active | Not Active | Not Active | Not Active | Not Active | – | – | – | – | – | – | – |
| N[C@@H](Cc1ccc(O)c(O)c1)C(=O)O [LEVODOPA] | Not Active | Not Active | Not Active | Not Active | Not Active | – | – | – | – | – | – | – |
| N[C@@H](Cc1cc(I)c(Oc2ccc(O)c(I)c2)c(I)c1)C(=O)O [LIOTHYRONINE] | Not Active | Not Active | Not Active | Not Active | Not Active | – | – | – | – | – | – | – |
| O=NN(CCCl)C(=O)NC1CCCCC1 [LOMUSTINE] | Not Active | Not Active | Not Active | Not Active | Not Active | – | – | – | – | – | – | – |
| CCOC(=O)N1CCC(=C2c3ccc(Cl)cc3CCc3cccnc32)CC1 [LORATADINE] | Not Active | Not Active | Not Active | Not Active | Not Active | – | – | – | – | – | – | – |
| Cn1ccnc1S [METHIMAZOLE] | Not Active | Not Active | Not Active | Not Active | Not Active | – | – | – | – | – | – | – |
| CC[C@@H](CO)NC(=O)[C@@H]1C=C2c3cccc4[nH]cc(c34)C[C@H]2N(C)C1 [METHYLERGONOVINE] | Not Active | Not Active | Not Active | Not Active | Not Active | – | – | – | – | – | – | – |
| COc1nc(C)nc(Cl)c1NC1=NCCN1 [MOXONIDINE] | Not Active | Not Active | Not Active | Not Active | Not Active | – | – | – | – | – | – | – |
| COc1c(C)c2c(c(O)c1C/C=C(\C)CCC(=O)O)C(=O)OC2 [MYCOPHENOLIC ACID] | Not Active | Not Active | Not Active | Not Active | Not Active | – | – | – | – | – | – | – |
| O=c1ncn2nc(Sc3ccc(F)cc3F)ccc2c1-c1c(Cl)cccc1Cl [NEFLAMAPIMOD] | Not Active | Not Active | Not Active | Not Active | Not Active | – | – | – | – | – | – | – |
| CN1CCN(CCCN2c3ccccc3Sc3ccc(Cl)cc32)CC1 [PROCHLORPERAZINE] | – | Not Active | Not Active | Not Active | Not Active | – | – | 0.034 | 0.016 | – | – | – |
| CO[C@H]1/C=C/O[C@@]2(C)Oc3c(C)c(O)c4c(O)c(c(/C=N/N5CCN(C)CC5)c(O)c4c3C2=O)NC(=O)/C(C)=C\C=C\[C@H](C)[C@H](O)[C@@H](C)[C@@H](O)[C@@H](C)[C@H](OC(C)=O)[C@@H]1C [RIFAMPIN] | Not Active | Not Active | Not Active | Not Active | Not Active | – | – | – | – | – | – | – |
| Nc1nc2ccc(OC(F)(F)F)cc2s1 [RILUZOLE] | Not Active | Not Active | Not Active | Not Active | Not Active | – | – | – | – | – | – | – |
| Cc1nc2n(c(=O)c1CCN1CCC(c3noc4cc(F)ccc34)CC1)CCCC2 [RISPERIDONE] | – | Not Active | Not Active | Not Active | Not Active | – | – | – | – | – | – | – |
| C=CCC1(C(C)CCC)C(=O)NC(=O)NC1=O (centres undefined) [SECOBARBITAL] | Not Active | Not Active | Not Active | Not Active | Not Active | – | – | – | – | – | – | – |
| C[C@@H]1CN(c2c(F)c(N)c3c(=O)c(C(=O)O)cn(C4CC4)c3c2F)C[C@H](C)N1 [SPARFLOXACIN] | Not Active | Not Active | Not Active | Not Active | Not Active | – | – | – | – | – | – | – |
| Cc1noc(NS(=O)(=O)c2ccc(N)cc2)c1C [SULFISOXAZOLE] | Not Active | Not Active | Not Active | Not Active | Not Active | – | – | – | – | – | – | – |
| CSc1ccc(/C=C2/C(C)=C(CC(=O)O)c3cc(F)ccc32)cc1 [SULINDAC SULFIDE] | Not Active | Not Active | Not Active | Not Active | Not Active | – | – | – | – | – | – | – |
| Nc1c2c(nc3ccccc13)CCCC2 [TACRINE] | Not Active | Not Active | Not Active | Not Active | – | – | – | – | – | – | – | – |
| CC/C(=C(\c1ccccc1)c1ccc(OCCN(C)C)cc1)c1ccccc1 [TAMOXIFEN] | – | – | Not Active | – | Not Active | 19.8 | 2.59 | 4.98 | 2.45 | 15.7 | 8.54 | – |
| CC(C)N1CCN(c2ccc(OCC3COC(Cn4cncn4)(c4ccc(Cl)cc4Cl)O3)cc2)CC1 (centres undefined) [TERCONAZOLE] | – | Not Active | Not Active | Not Active | – | – | – | 14.4 | 7.07 | – | – | 21.6 |
| Nc1nc2nc[nH]c2c(=S)[nH]1 [THIOGUANINE] | Not Active | Not Active | Not Active | Not Active | Not Active | – | – | – | – | – | – | – |
| Cc1cccc(N(C)C(=S)Oc2ccc3ccccc3c2)c1 [TOLNAFTATE] | Not Active | Not Active | Not Active | Not Active | Not Active | – | – | – | – | – | – | – |
| NC[C@H]1CC[C@H](C(=O)O)CC1 [TRANEXAMIC ACID] | Not Active | Not Active | Not Active | Not Active | Not Active | – | – | – | – | – | – | – |
